ChEMBL document CHEMBL5376026, “Design, synthesis, and antiproliferative evaluation of novel dehydroabietic acid-1,2,3-triazole-oxazolidinone hybrids” (RSC Med Chem, 2024)
One block for each molecule: values may come before it. Active and inactive are the calls of the source. No cut-off for these calls is given here.

Experiments:
HeLa = experiment: Anticancer activity against human HeLa cells assessed as inhibition of cell growth incubated for 48 hrs by MTT assay; type: functional, cell-based
HepG2 = experiment: Anticancer activity against human HepG2 cells assessed as inhibition of cell growth incubated for 48 hrs by MTT assay; type: functional, cell-based; conditions: HepG2, 48 h
MGC-803 [1] = experiment: Anticancer activity against human MGC-803 cells assessed as inhibition of cell growth incubated for 48 hrs by MTT assay; type: functional, cell-based; conditions: MGC-803, 48 h
T-24 = experiment: Anticancer activity against human T-24 cells assessed as inhibition of cell growth incubated for 48 hrs by MTT assay; type: functional, cell-based; conditions: T-24, 48 h
[2] = Cytotoxicity against human LO2 cells assessed as reduction in cell viability incubated for 48 hrs by MTT assay; type: toxicity, cell-based, L02
MGC-803 [3] = experiment: Induction of apoptosis in human MGC-803 cells assessed as viable cells at 2.5 uM incubated for 48 hrs by Annexin-V FITC and PI staining based flow cytometry (reference value: 98.3%); type: functional; conditions: read-out: Activity
MGC-803 [4] = experiment: Induction of apoptosis in human MGC-803 cells assessed as early apoptotic cells at 2.5 uM incubated for 48 hrs by Annexin-V FITC and PI staining based flow cytometry (reference value: 0.20%); type: functional
MGC-803 [5] = experiment: Induction of apoptosis in human MGC-803 cells assessed as late apoptotic cells at 2.5 uM incubated for 48 hrs by Annexin-V FITC and PI staining based flow cytometry (reference value: 0.81%); type: functional
MGC-803 [6] = experiment: Induction of apoptosis in human MGC-803 cells assessed as necrotic cells at 2.5 uM incubated for 48 hrs by Annexin-V FITC and PI staining based flow cytometry (reference value: 0.68%); type: functional
MGC-803 [7] = experiment: Induction of apoptosis in human MGC-803 cells assessed as viable cells at 5 uM incubated for 48 hrs by Annexin-V FITC and PI staining based flow cytometry (reference value: 98.3%); type: functional; conditions: read-out: Activity
MGC-803 [8] = experiment: Induction of apoptosis in human MGC-803 cells assessed as early apoptotic cells at 5 uM incubated for 48 hrs by Annexin-V FITC and PI staining based flow cytometry (reference value: 0.20%); type: functional
MGC-803 [9] = experiment: Induction of apoptosis in human MGC-803 cells assessed as late apoptotic cells at 5 uM incubated for 48 hrs by Annexin-V FITC and PI staining based flow cytometry (reference value: 0.81%); type: functional
MGC-803 [10] = experiment: Induction of apoptosis in human MGC-803 cells assessed as necrotic cells at 5 uM incubated for 48 hrs by Annexin-V FITC and PI staining based flow cytometry (reference value: 0.68%); type: functional
MGC-803 [11] = experiment: Induction of apoptosis in human MGC-803 cells assessed as viable cells at 10 uM incubated for 48 hrs by Annexin-V FITC and PI staining based flow cytometry (reference value: 98.3%); type: functional; conditions: read-out: Activity
MGC-803 [12] = experiment: Induction of apoptosis in human MGC-803 cells assessed as early apoptotic cells at 10 uM incubated for 48 hrs by Annexin-V FITC and PI staining based flow cytometry (reference value: 0.20%); type: functional
MGC-803 [13] = experiment: Induction of apoptosis in human MGC-803 cells assessed as late apoptotic cells at 10 uM incubated for 48 hrs by Annexin-V FITC and PI staining based flow cytometry (reference value: 0.81%); type: functional
MGC-803 [14] = experiment: Induction of apoptosis in human MGC-803 cells assessed as necrotic cells at 10 uM incubated for 48 hrs by Annexin-V FITC and PI staining based flow cytometry (reference value: 0.68%); type: functional
MGC-803 [15] = experiment: Induction of apoptosis in human MGC-803 cells assessed as apoptosis rate at 2.5 uM incubated for 48 hrs by Annexin-V FITC and PI staining based flow cytometry (reference value: 0.42%); type: functional
MGC-803 [16] = experiment: Induction of apoptosis in human MGC-803 cells assessed as apoptosis rate at 5 uM incubated for 48 hrs by Annexin-V FITC and PI staining based flow cytometry (reference value: 0.42%); type: functional
MGC-803 [17] = experiment: Induction of apoptosis in human MGC-803 cells assessed as apoptosis rate at 10 uM incubated for 48 hrs by Annexin-V FITC and PI staining based flow cytometry (reference value: 0.42%); type: functional
MGC-803 [18] = experiment: Induction of cell cycle arrest in human MGC-803 cells assessed as accumulation of cells at G0/G1 phase at 2.5 uM incubated for 48 hrs by propidium iodide staining based flow cytometry (reference value: 50.67%); type: functional
MGC-803 [19] = experiment: Induction of cell cycle arrest in human MGC-803 cells assessed as accumulation of cells at G2/M phase at 2.5 uM incubated for 48 hrs by propidium iodide staining based flow cytometry (reference value: 16.81%); type: functional
MGC-803 [20] = experiment: Induction of cell cycle arrest in human MGC-803 cells assessed as accumulation of cells at S phase at 2.5 uM incubated for 48 hrs by propidium iodide staining based flow cytometry (reference value: 33.22%); type: functional
MGC-803 [21] = experiment: Induction of cell cycle arrest in human MGC-803 cells assessed as accumulation of cells at G0/G1 phase at 5 uM incubated for 48 hrs by propidium iodide staining based flow cytometry (reference value: 50.67%); type: functional
MGC-803 [22] = experiment: Induction of cell cycle arrest in human MGC-803 cells assessed as accumulation of cells at G2/M phase at 5 uM incubated for 48 hrs by propidium iodide staining based flow cytometry (reference value: 16.81%); type: functional
MGC-803 [23] = experiment: Induction of cell cycle arrest in human MGC-803 cells assessed as accumulation of cells at S phase at 5 uM incubated for 48 hrs by propidium iodide staining based flow cytometry (reference value: 33.22%); type: functional
MGC-803 [24] = experiment: Induction of cell cycle arrest in human MGC-803 cells assessed as accumulation of cells at G0/G1 phase at 10 uM incubated for 48 hrs by propidium iodide staining based flow cytometry (reference value: 50.67%); type: functional
MGC-803 [25] = experiment: Induction of cell cycle arrest in human MGC-803 cells assessed as accumulation of cells at G2/M phase at 10 uM incubated for 48 hrs by propidium iodide staining based flow cytometry (reference value: 16.81%); type: functional
MGC-803 [26] = experiment: Induction of cell cycle arrest in human MGC-803 cells assessed as accumulation of cells at S phase at 10 uM incubated for 48 hrs by propidium iodide staining based flow cytometry (reference value: 33.22%); type: functional
MGC-803 [27] = experiment: Induction of apoptosis in human MGC-803 cells assessed as chromatin condensation incubated for 48 hrs by Hoechst 33258 staining based fluorescence microscopic analysis; type: functional, cell-based; conditions: dose 2.5-10 µM
MGC-803 [28] = experiment: Induction of apoptosis in human MGC-803 cells assessed as increase in apoptotic nuclei incubated for 48 hrs by Hoechst 33258 staining based fluorescence microscopic analysis; type: functional, cell-based; conditions: dose 2.5-10 µM
MGC-803 [29] = experiment: Induction of reactive oxygen species generation in human MGC-803 cells at 2.5 to 10 uM incubated for 48 hrs by DCFH-DA staining based fluorescence microscopic analysis; type: functional, cell-based; conditions: dose 2.5-10 µM
MGC-803 [30] = experiment: Induction of mitochondrial membrane potential loss in human MGC-803 cells at 2.5 uM incubated for 10 to 24 hrs by JC-1 staining based fluorescence microscopic assay; type: functional, cell-based; conditions: time 10-24 hrs

IC50 (HeLa): 14 µM
IC50 (HepG2): 13.6 µM
IC50 (MGC-803 [1]): 11 µM
SMILES: CC(C)c1ccc2c(c1)CC[C@H]1[C@](C)(C(=O)OCc3cn(CC4CN(c5ccccc5Cl)C(=O)O4)nn3)CCC[C@]21C (stereo partly drawn)
IC50 (T-24): 70.4 µM
IC50 at 48 h [2]: 21.4 µM

IC50 (HeLa): 25.3 µM
IC50 (HepG2): 11.7 µM
IC50 (MGC-803 [1]): 3.18 µM
SMILES: CC(C)c1ccc2c(c1)CC[C@H]1[C@](C)(C(=O)OCc3cn(CC4CN(c5ccc(Br)cc5)C(=O)O4)nn3)CCC[C@]21C (stereo partly drawn)
IC50 (T-24): 14.2 µM
IC50 at 48 h [2]: 40 µM
viability at 2.5 µM (MGC-803 [3]): 87.5%
Activity (MGC-803 [4]): 4.89%
Activity (MGC-803 [5]): 6.25%
Activity (MGC-803 [6]): 1.32%
viability at 5 µM (MGC-803 [7]): 68.8%
Activity (MGC-803 [8]): 16.2%
Activity (MGC-803 [9]): 12%
Activity (MGC-803 [10]): 2.9%
viability at 10 µM (MGC-803 [11]): 14%
Activity (MGC-803 [12]): 82.1%
Activity (MGC-803 [13]): 2.64%
Activity (MGC-803 [14]): 1.25%
Activity (MGC-803 [15]): 6%
Activity (MGC-803 [16]): 8.87%
Activity (MGC-803 [17]): 33.34%
Activity (MGC-803 [18]): 52.14%
Activity (MGC-803 [19]): 13.7%
Activity (MGC-803 [20]): 34.79%
Activity (MGC-803 [21]): 54.14%
Activity (MGC-803 [22]): 12.52%
Activity (MGC-803 [23]): 33.63%
Activity (MGC-803 [24]): 55.64%
Activity (MGC-803 [25]): 11.23%
Activity (MGC-803 [26]): 33.22%
Activity (MGC-803 [27]): Dose-Dependent Effect
Activity (MGC-803 [28]): Dose-Dependent Effect
Activity (MGC-803 [29]): Active
Activity (MGC-803 [30]): Active

IC50 (HeLa): 24.7 µM
IC50 (HepG2): 18.1 µM
IC50 (MGC-803 [1]): 16.3 µM
SMILES: CC(C)c1ccc2c(c1)CC[C@H]1[C@](C)(C(=O)OCc3cn(CC4CN(c5ccc(Cl)cc5)C(=O)O4)nn3)CCC[C@]21C (stereo partly drawn)
IC50 (T-24): 36.4 µM
IC50 at 48 h [2]: 24.3 µM

IC50 (HeLa): 20.5 µM
IC50 (HepG2): 12.6 µM
IC50 (MGC-803 [1]): 21.6 µM
SMILES: CC(C)c1ccc2c(c1)CC[C@H]1[C@](C)(C(=O)OCc3cn(CC4CN(c5cccc(Br)c5)C(=O)O4)nn3)CCC[C@]21C (stereo partly drawn)
IC50 (T-24): 42.6 µM
IC50 at 48 h [2]: 47.6 µM

IC50 (HeLa): 46.7 µM
IC50 (HepG2): 45.8 µM
IC50 (MGC-803 [1]): 12.7 µM
SMILES: CC(C)c1ccc2c(c1)CC[C@H]1[C@](C)(C(=O)OCc3cn(CC4CN(c5ccc(F)cc5)C(=O)O4)nn3)CCC[C@]21C (stereo partly drawn)
IC50 (T-24): 55.1 µM
IC50 at 48 h [2]: 41.6 µM

IC50 (HeLa): 7.76 µM
IC50 (HepG2): 31 µM
IC50 (MGC-803 [1]): 7.16 µM
SMILES: COc1ccc(N2CC(Cn3cc(COC(=O)[C@]4(C)CCC[C@]5(C)c6ccc(C(C)C)cc6CC[C@@H]45)nn3)OC2=O)cc1 (stereo partly drawn)
IC50 (T-24): 18.8 µM
IC50 at 48 h [2]: 31.1 µM

IC50 (HeLa): 6.94 µM
IC50 (HepG2): 47.9 µM
IC50 (MGC-803 [1]): 17.6 µM
SMILES: CC(C)c1ccc2c(c1)CC[C@H]1[C@](C)(C(=O)OCc3cn(CC4CN(c5cccc(Cl)c5)C(=O)O4)nn3)CCC[C@]21C (stereo partly drawn)
IC50 (T-24): > 100 µM
IC50 at 48 h [2]: 23.9 µM
